Assay results reported in US9428487B2, “Heteroaromatic amides and thioamides as pesticides” (Bayer Intellectual Property GmbH, priority 2008, dated 2016).
Where two headings read alike, the source gives them in different places.

Key:
[1] = tested on: green peach aphid (Myzus persicae); test: Myzus test; format: in vivo; details: read-out: efficacy (aphids killed)
Protocol: • Solvent: 78.0 parts by weight of acetone • 1.5 parts by weight of dimethylformamide • Emulsifier: 0.5 part by weight of alkylaryl polyglycol ether
To produce an appropriate active ingredient formulation, 1 part by weight of active ingredient is mixed with the amounts of solvent and emulsifier specified and the concentrate is diluted to the desired concentration with emulsifier-containing water.
Chinese cabbage leaf slices (Brassica pekinensis) infested by all stages of the green peach aphid (Myzus persicae) are sprayed with an active ingredient formulation of the desired concentration.
After the desired time, the efficacy in % is determined 100% means that all aphids have been killed; 0% means that no aphids have been killed.

[2] = Determination of log P values by HPLC on reversed-phase column (formic acid method); format: physicochemical
Protocol: 1) Description of Method for Determining the Log P Values (Formic Acid Method)
The log P values reported in the table were determined according to EEC-Directive 79/831 Annex V.A8 by HPLC (High Performance Liquid Chromatography) on a reversed-phase column (C 18). […]
Eluent A: acetonitrile+1 ml of formic acid/liter. Eluent B: water+0.9 ml of formic acid/liter.
Gradient: from 10% eluent A/90% eluent B to 95% eluent A/5% eluent B in 4.25 min
The calibration was effected with unbranched alkan-2-ones (with 3 to 16 carbon atoms), whose log P values are known (determination of the log P values on the basis of the retention times by linear interpolation between two successive alkanones). The lambda-max values were determined with reference to the UV spectra from 200 nm to 400 nm in the maxima of the chromatographic signals.

[3] = application rate 500 g/ha, spray on Chinese cabbage leaf slices
[4] = reversed-phase HPLC column (C 18), pH 3.4, HPLC, reversed-phase C 18, acidic range (pH 3.4), formic acid eluents, 55° C., read-out: logP (HCOOH)
[5] = HPLC, reversed-phase C 18, acidic range (pH 3.4), formic acid eluents, 55° C., read-out: logP (HCOOH)

| SMILES | pest or weed control at 500 g/ha [1, 3] [%] | chromatographic logP [2, 4] | other results |
| --- | --- | --- | --- |
| Cc1nc(-c2cncc(F)c2)sc1C(=O)NCc1ncccn1 [Compound 10] | ≥ 70 | 1.39 | – |
| Cn1nc(-c2cncc(F)c2)cc1C(=O)NCC(C)(F)F [Compound 12] | ≥ 70 | 1.89 | – |
| Cc1nc(-c2cccnc2)sc1C(=O)NCC(F)(F)F [Compound 39] | ≥ 70 | 1.63 | – |
| CN(Cc1ncccn1)C(=O)c1cnc(-c2cccnc2)s1 [Compound 102] | ≥ 70 | 1.3 | – |
| COC(=O)C(C)NC(=O)c1sc(-c2cccnc2)nc1C (centres unmarked) [Compound 84] | ≥ 70 | 1.36 | – |
| Cc1nc(-c2cccnc2)sc1C(=O)NCC1(C)CCCO1 (centres unmarked) [Compound 160] | ≥ 70 | 1.27 | – |
| Cc1cc(CNC(=O)c2sc(-c3cccnc3)nc2C)n(C)n1 [Compound 105] | ≥ 70 | 1.23 | – |
| Cc1ccc(CNC(=O)c2cnc(-c3cccnc3)s2)o1 [Compound 186] | ≥ 70 | 1.77 | – |
| Cc1nc(-c2cncnc2)sc1C(=O)NCC(F)(F)F [Preparation Example 5] | ≥ 70 | 1.61 | – |
| Cc1nc(-c2cccnc2)sc1C(=O)NCc1cc(C)n(C)n1 [Compound 145] | ≥ 70 | 1.38 | – |
| Cc1nc(-c2cccnc2)sc1C(=O)NCC(F)(F)C(F)(F)F [Compound 189] | ≥ 70 | 2.13 | – |
| COc1ccc(CN(CC(F)(F)F)C(=O)c2sc(-c3cccnc3)nc2C)cc1 [Compound 185] | ≥ 70 | 2.91 | – |
| Cc1nc(-c2cccnc2)sc1C(=O)NCCCl [Compound 177] | – | – | pest or weed control at 500 g/ha ([1]; in Brassica rapa): ≥ 70%; chromatographic logP [2, 5]: 1.41 |
| Cc1nc(-c2cccnc2)sc1C(=O)NCc1ccncn1 [Compound 126] | ≥ 70 | 0.9 | – |
| C#CC(C)ONC(=O)c1sc(-c2cccnc2)nc1C (centres unmarked) [Compound 158] | ≥ 70 | 1.48 | – |
| Cc1nc(-c2cncc(Cl)c2)sc1C(=O)NCc1ncccn1 [Compound 15] | ≥ 70 | 1.69 | – |
| C=CC[n+]1cccc(-c2nc(C)c(C(=O)NCC(F)(F)F)s2)c1 [Compound 122] | ≥ 70 | 1.13 | – |
| CCN(CC)C(=O)c1cnc(-c2cccnc2)s1 [Compound 67] | ≥ 70 | 1.46 | – |
| CC(=O)CNC(=O)c1sc(-c2cccnc2)nc1C [Compound 175] | ≥ 70 | 1.02 | – |
| Cc1nc(-c2cccnc2)sc1C(=O)NCc1nc(C2CC2)no1 [Compound 172] | ≥ 70 | 1.63 | – |
| Cc1nc(-c2cccnc2)sc1C(=O)NC(C)c1ncccn1 (centres unmarked) [Compound 37] | ≥ 70 | 1.24 | – |
| Cc1nc(-c2cccnc2)sc1C(=O)NC(C)CF (centres unmarked) [Compound 97] | ≥ 70 | 1.42 | – |
| COC(OC)C(C)NC(=O)c1sc(-c2cccnc2)nc1C (centres unmarked) [Compound 65] | ≥ 70 | 1.45 | – |
| Cc1nc(-c2cccnc2)sc1C(=O)NC(C)c1ccccn1 (centres unmarked) [Compound 87] | ≥ 70 | 1.1 | – |
| CSCCN(C)C(=O)c1cnc(-c2cccnc2)s1 [Compound 148] | ≥ 70 | 1.38 | – |
| Cn1nc(-c2cncc(F)c2)cc1C(=O)NCc1ncccn1 [Compound 11] | ≥ 70 | 1.24 | – |

| SMILES | pest or weed control at 500 g/ha [1, 3] [%] | chromatographic logP [2, 4] | other results |
| --- | --- | --- | --- |
| COC(=O)N(CC(F)(F)F)C(=O)c1sc(-c2cccnc2)nc1C [Compound 116] | – | – | pest or weed control at 500 g/ha ([1]; in Brassica rapa): ≥ 70%; chromatographic logP [2, 5]: 2.46 |
| Cc1nc(-c2cccnc2)sc1C(=O)N(C)CC(=O)OC(C)C [Compound 162] | ≥ 70 | 1.78 | – |
| Cc1nc(-c2cccnc2)sc1C(=O)N(C)CC(=O)N(C)C [Compound 133] | ≥ 70 | 0.8 | – |
| CCC(=O)N(CC(F)(F)F)C(=O)c1sc(-c2cccnc2)nc1C [Compound 89] | ≥ 70 | 2.61 | – |
| N#CCNC(=O)c1cnc(-c2cccnc2)s1 [Compound 79] | ≥ 70 | 0.88 | – |
| Cc1nc(-c2cccnc2)sc1C(=O)NN1CCCC1 [Compound 201] | ≥ 70 | 1.37 | – |
| CCOC(=O)C(CC)N(C)C(=O)c1sc(-c2cccnc2)nc1C (centres unmarked) [Compound 141] | ≥ 70 | 2.1 | – |
| Cc1nc(-c2cccnc2)sc1C(=S)NCC(F)(F)F [Preparation Example 4] | ≥ 70 | 2.39 | logP (HCOOH) ([2]; HPLC, reversed-phase C 18, acidic range (pH 3.4), formic acid eluents, 55° C.): 2.38 |
| CCc1nccc(CNC(=O)c2cnc(-c3cccnc3)s2)n1 [Compound 176] | ≥ 70 | 1.19 | – |
| Cc1nc(-c2cccnc2)sc1C(=O)N(C)CC(C)F (centres unmarked) [Compound 80] | ≥ 70 | 1.5 | – |
| COC(=O)N(C)NC(=O)c1sc(-c2cccnc2)nc1C [Compound 196] | ≥ 70 | – | chromatographic logP [2, 5]: 1.23 |
| Cc1nc(-c2cncc(F)c2)sc1C(=O)NCC(F)(F)F [Compound 9] | ≥ 70 | 2.15 | – |
| O=C(NCc1ccncn1)c1cnc(-c2cccnc2)s1 [Compound 81] | ≥ 70 | 0.73 | – |
| Cc1nc(-c2cccnc2)sc1C(=O)N(C)C(C)(C)C#N [Compound 47] | ≥ 70 | 1.41 | – |
| Cc1nc(-c2cccnc2)sc1C(=O)NCC1OCC(CCl)O1 (centres unmarked) [Compound 132] | ≥ 70 | 1.51 | – |
| Cc1nc(-c2cccnc2)sc1C(=O)NC(C)(C#N)C1CC1 (centres unmarked) [Compound 94] | ≥ 70 | 1.76 | – |
| Cc1cc(CNC(=O)c2sc(-c3cccnc3)nc2C)no1 [Compound 98] | ≥ 70 | 1.45 | – |
| Cc1nc(-c2cccnc2)sc1C(=O)NCc1ccccn1 [Compound 90] | ≥ 70 | 0.78 | – |
| Cc1nc(-c2cccnc2)sc1C(=O)NC(C)CC(F)(F)F (centres unmarked) [Compound 86] | ≥ 70 | 1.94 | – |
| Cc1nc(-c2ccc[n+]([O-])c2)sc1C(=O)NCC(F)(F)F [Compound 78] | ≥ 70 | 1.31 | – |
| O=C(NCC(F)(F)F)c1nnc(-c2cccnc2)s1 [Compound 32] | ≥ 70 | 1.53 | – |
| CN(CCF)C(=O)c1cnc(-c2cccnc2)s1 [Compound 136] | ≥ 70 | 1.17 | – |
| O=C(NCc1ncccn1)c1nnc(-c2cccnc2)s1 [Preparation Example 7] | ≥ 70 | 0.85 | chromatographic logP ([2]; pH 7.5, pH=7.5, read-out: log P (pH=7.5)): 0.85 |
| Cc1nc(CN(C)C(=O)c2cnc(-c3cccnc3)s2)c(C)o1 [Compound 166] | ≥ 70 | 1.44 | – |
| COC1(NC(=O)c2cnc(-c3cccnc3)s2)CC1 [Compound 70] | ≥ 70 | 1.14 | – |
